Measured values taken from patent publication US12410237B2, “Methods for purifying proteins having a tubulin carboxypeptidase activity and peptidic based inhibitors thereof” (CENTRE NATIONAL DE LA RECHERCHE SCIENTIFIQUE, priority 2017, dated 2025).
“Also recorded” adds a separate entry of the source.

Experiments:
[1] = tested on: native TCPase activity in brain MAPs; assay: detyrosination assay with 3H-tyrosine labelled microtubules and isolated brain MAPs; type: biochemical, pig; conditions: for inhibition of native TCPase activity in brain MAPs (in words): protease inhibitor treatment of brain MAPs, FIG. 5; for inhibition of TCP activity in the MAPs fraction by peptides (in words): brain-derived MAPs, FIG. 11A
Description: An assay involving radioactively labelled tyrosine (^3H—Y) was used to quantitatively determine the TCPase activity. Brain tubulin was isolated and purified and radioactively labelled with *Y by recombinant TTL. To do so, recombinant bacterially expressed purified TTL (>90% purity) was put in contact with micrograms of pig brain purified tubulin. The reaction sample was incubated for one hour at 37° C. in presence of radioactively labelled ^3H—Y and ATP. Following incorporation of ^3H—Y to tubulin, a polymerization cycle was performed by adding GTP and incubating for 30 min at 37° C. Next the samples are centrifuged and the obtained pellet was washed twice with PEM buffer. The resulting radioactively labelled MTs were store at −80° C. until further testing. […] After obtaining both purified recombinant TCPase candidate and radioactively labelled MTs, the proteins were put into contact and various amounts of TCPase were presented to MTs. Removal of the radioactive tyrosine by the candidate detyrosinase was measured by quantification of radioactivity in both the soluble and insoluble fraction of the reaction using a liquid scintillator counter.
To further gain insights in the potential protease that could embody the TCPase activity, the isolated MAPs from crude brain extracts were exposed to a selection of specific Cysteine, Aspartic, Metallo and Serine proteinase inhibitors were tested on the extract.
Recombinant bacterially expressed purified TTL (>90% purity) was put in contact with micrograms of pig brain purified tubulin. The reaction sample was incubated for one hour at 37° C. in presence of radioactively labeled ^3H—Y and ATP. Following incorporation of ^3H—Y to tubulin, a polymerization cycle was performed by adding GTP and incubating for 30 min at 37° C. Next, the samples were centrifuged and the obtained pellet was washed twice with PEM buffer. The resulting radioactively labeled MTs were store at −80° C. until further testing. The isolated MAPs from crude brain extracts (as obtained in example 1) were contacted to the radioactively labeled MTs in absence or presence of different peptidic inhibitors or an increasing concentration of peptidic inhibitor. Release of radioactive tyrosine by native TCPase containing brain MAPs was measured by quantification of radioactivity in both the soluble and insoluble fraction of the reaction using a liquid scintillator counter.

C2C12 cells = assay: C2C12 myogenic differentiation, immunoblot of tubulin detyrosination and acetylation; type: cell-based, mouse; conditions: C2C12 myogenic differentiation time-course, FIG. 12
Description: C2C12 cells is an immortal cell line of mouse skeletal myoblasts originally derived from satellite cells from the thigh muscle cells. C2C12 cells were routinely grown at 37° C. in a CO2 incubator. Myogenic differentiation is initiated upon reaching confluence by switching the cells to medium containing 2% horse serum. Cells were collected at start of the myogenic differentiation and every two days over a period of 6 days for molecular analysis.
To further study the use of a TCPase inhibitor, C2C12 cells were treated with or without EEY peptide (FIG. 12). The protein expression of Myosin was monitored by western blotting as control for muscle differentiation. Vinculin acts as loading control. Acetylation and detyrosination of the microtubules was assessed. Whereas acetylation increases during differentiation (Ac-Tubulin) no difference in the status could be observed in the treated cells.

Row | Molecule | inhibition of native TCPase activity in brain MAPs (in words) [1] | inhibition of TCP activity in the MAPs fraction by peptides (in words) [1] | acetylation of the microtubules (Ac-Tubulin) (C2C12 cells) | tubulin detyrosination levels (Δ1-tubulin) (C2C12 cells)
1 | CC(C)C[C@H](NC(=O)[C@H]1O[C@@H]1C(=O)O)C(=O)NCCCCN=C(N)N [E64, reference compound] | complete inhibition |  |  | 
2 | NC(=O)CI [Iodoacetamide, reference compound] | complete inhibition |  |  | 
3 | EDY: three amino acid peptide EDY inspired by the C-terminal sequence of tubulin |  | partially blocked |  | 
4 | EEY: tripeptide EEY inspired by the C-terminal sequence of alpha-tubulin, TCP inhibitor |  | almost fully inhibited | no difference | clearly inhibited detyrosination; also recorded: decrease
